From patent publication US20240279232A1, “USE OF SUBSTITUTED 5-(4-METHYL-6-PHENYL-4H-BENZO[F]IMIDAZO[1,5-A][1,4] DIAZEPIN-3-YL)-1,2,4-O[…] THE TREATMENT OF INFLAMMATORY CONDITIONS” (priority 2021, published 2024)

Key:
Mouse microglia [1] = assay: Cell viability (CellTiter-Glo), mouse microglia; type: cell-based; conditions: 50 μM, CellTiter-Glo
Procedure, shortened: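 Mouse microglia (1×10^6 cells/mL) activated with 50 ng/ml LPS plus 150 U/mL IFNγ, incubated with compounds ~24 h at 37° C. Viability of remaining cells read by CellTiter-Glo luminescence after supernatant removal for Griess NO assay; […].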

HEPG2 = assay: Viability assay (CellTiter-Glo), HEPG2; type: cell-based, human; conditions: for Cell viability (%) HEPG2 120 μM: CellTiter-Glo
Method: (§1) The screen identified several compounds that reduced NO in activated microglia and macrophages. The tested compounds included achiral and chiral imidazodiazepines and benzodiazepines. In general, microglia were more sensitive to compound treatment with more pronounced reduction of NO than macrophages. […] Cell viability assays with HEK293 (kidney) and HepG2 (liver) cells were conducted in a concentration dependent manner. A limited number of compounds, such as GL-III-63, GL-III-76A, and GL-III-77, were toxic at 120 μM.
(§2) Viability assay. Human liver hepatocellular carcinoma (HEPG2) and human embryonic kidney 293T (HEK293T) cell lines were purchased (ATCC) and cultured in 75 cm^2 flasks (CellStar). Cells were grown in DMEM/High Glucose (Hyclone, #SH3024301) media to which non-essential amino acids (Hyclone, #SH30238.01), 10 mM HEPES (Hyclone, #SH302237.01), 5×10^6 units of penicillin and streptomycin (Hyclone, #SV30010), and 10% of heat inactivated fetal bovine serum (Gibco, #10082147) were added. Cells were harvested using 0.05% Trypsin (Hyclone, #SH3023601), washed with PBS, and dispensed into sterile white, optical bottom 384-well plates (NUNC, #142762). After three hours, small molecule DMSO solutions were transferred with a Tecan Freedom EVO liquid handling system equipped with a 100 nL pin tool (V&P Scientific). The controls were 3-dibutylamino-1-(4-hexyl-phenyl)-propan-1-one (25 mM in DMSO, positive control) and DMSO (negative control). The cells were incubated for 48 hours followed by the addition of CellTiter-Glo™, a luminescence-based cell viability assay (Promega, Madison, WI). All luminescence readings were performed on a Tecan Infinite M1000 plate reader. The assay was carried out in quadruplet with two independent runs. The data were analyzed by nonlinear regression.

RAW macrophages [2] = assay: NO production (Griess assay), LPS/IFNγ-activated RAW264.7 macrophages; type: cell-based, mouse; conditions: for Inhibition of NO production (%) RAW macrophages 10 μM: 24 hours, 1 μM GABA, LPS/IFNγ; for inhibition at 10 µM: Mus musculus, Macrophage, 24 h
Mouse microglia [3] = assay: NO production (Griess assay), LPS/IFNγ-activated mouse microglia; type: cell-based; conditions: for Inhibition of NO production (%) Mouse microglia 10 μM: 24 hours, 1 μM GABA, LPS/IFNγ; for inhibition at 10 µM: Mus musculus, Microglia, 24 h
HEK293 = assay: Viability assay (CellTiter-Glo), HEK293; type: cell-based, human; conditions: for Cell viability (%) HEK293 120 μM: CellTiter-Glo
Method: as §1, §2

RAW macrophages [4] = assay: Cell viability (CellTiter-Glo), RAW macrophages; type: cell-based, mouse; conditions: CellTiter-Glo

SMILES	Cell viability (%) Mouse microglia 50 μM (Mouse microglia [1])	Cell viability (%) HEPG2 120 μM (HEPG2)	Inhibition of NO production (%) RAW macrophages 10 μM (RAW macrophages [2])	Inhibition of NO production (%) Mouse microglia 10 μM (Mouse microglia [3])	Cell viability (%) HEK293 120 μM (HEK293)	Cell viability (%) RAW macrophages 50 μM (RAW macrophages [4])	toxicity at 120 μM (in words) (HEPG2; HepG2, 120 μM)	toxicity at 120 μM (in words) (HEK293; HEK293, 120 μM)	inhibition at 10 µM (RAW macrophages [2])	inhibition at 10 µM (Mouse microglia [3])
C#Cc1ccc2c(c1)C(c1ccccc1F)=NCc1c(C(=O)OCCCO)ncn1-2 [GL-II-80]	85 ± 1%	100 ± 9%	5 ± 3%	38 ± 8%	76 ± 8%	100 ± 2%	–	–	–	–
C#Cc1ccc2c(c1)C(c1ccccc1F)=NC(C)C(=O)N2C (centres unmarked) [GL-III-24]	98 ± 5%	91 ± 12%	68 ± 8%	67 ± 12%	78 ± 6%	100 ± 12%	–	–	–	–
C#Cc1ccc2c(c1)C(c1ccccc1F)=NC(C)C(=O)N2C (centres unmarked) [GL-III-25]	98 ± 4%	100 ± 5%	38 ± 9%	25 ± 10%	93 ± 4%	100 ± 8%	–	–	–	–
C#Cc1ccc2c(c1)C(c1ccccn1)=N[C@H](C)C(=O)N2 [GL-III-27]	86 ± 8%	77 ± 7%	1 ± 3%	29 ± 8%	91 ± 2%	100 ± 4%	–	–	–	–
CC1N=C(c2ccccc2F)c2cc(Br)ccc2-n2cnc(C=O)c21 (centres unmarked) [GL-III-35]	100 ± 8%	98 ± 8%	0 ± 4%	17 ± 7%	79 ± 8%	100 ± 2%	–	–	–	–
CC1N=C(c2ccccc2F)c2cc(Cl)ccc2NC1=O (centres unmarked) [GL-III-52]	85 ± 8%	81 ± 9%	2 ± 2%	57 ± 11%	73 ± 8%	97 ± 8%	–	–	–	–
CCOC(=O)c1ncn2c1[C@@H](C)N=C(c1ccccc1F)c1cc(Cl)ccc1-2 [GL-III-53]	72 ± 7%	94 ± 10%	3 ± 2%	85 ± 14%	47 ± 10%	97 ± 7%	–	–	–	–
C#Cc1ccc2c(c1)C(c1ccccc1)=NCC(=O)N2 [GL-III-59]	96 ± 4%	100 ± 2%	8 ± 1%	43 ± 7%	100 ± 4%	100 ± 3%	–	–	–	–
CCNC(=O)c1ncn2c1[C@@H](C)N=C(c1ccccc1F)c1cc(Br)ccc1-2 [GL-III-67]	85 ± 10%	100 ± 9%	4 ± 2%	33 ± 1%	66 ± 6%	100 ± 7%	–	–	–	–
CC1N=C(c2ccccc2F)c2cc(C#C[Si](C)(C)C)ccc2-n2cnc(-c3cnco3)c21 (centres unmarked) [GL-III-72]	100 ± 10%	100 ± 3%	57 ± 7%	21 ± 7%	64 ± 8%	77 ± 4%	–	–	–	–
CC1N=C(c2ccccc2F)c2cc(Br)ccc2-n2cnc(C=O)c21 (centres unmarked) [GL-III-75]	87 ± 7%	74 ± 6%	3 ± 5%	44 ± 2%	73 ± 2%	100 ± 2%	–	–	–	–
CC1N=C(c2ccccc2F)c2cc(C#C[Si](C)(C)C)ccc2-n2cnc(-c3cnco3)c21 (centres unmarked) [GL-III-77]	98 ± 4%	0 ± 4%	29 ± 2%	31 ± 2%	0 ± 2%	85 ± 3%	toxic	toxic	–	–
C#Cc1ccc2c(c1)C(c1ccccc1F)=NC(C)c1c(C(=S)NC)ncn1-2 (centres unmarked) [GL-III-84]	96 ± 8%	100 ± 10%	10 ± 5%	32 ± 4%	64 ± 5%	100 ± 12%	–	–	–	–
C#Cc1ccc2c(c1)C(c1ccccc1F)=NC(C)c1c(C(=S)N(C)C)ncn1-2 (centres unmarked) [GL-III-85]	84 ± 12%	100 ± 11%	0 ± 2%	34 ± 8%	70 ± 12%	100 ± 10%	–	–	–	–
C#Cc1ccc2c(c1)C(c1ccccc1F)=NC(C)c1c(C(=S)NCC)ncn1-2 (centres unmarked) [GL-III-86]	99 ± 15%	100 ± 8%	7 ± 4%	39 ± 7%	66 ± 10%	100 ± 14%	–	–	–	–
C#Cc1ccc2c(c1)C(c1ccccc1F)=NC(C)c1c(C(=S)NC3CC3)ncn1-2 (centres unmarked) [GL-III-87]	100 ± 2%	100 ± 5%	0 ± 1%	23 ± 7%	90 ± 10%	100 ± 7%	–	–	–	–
C#Cc1ccc2c(c1)C(c1ccccn1)=N[C@H](C)c1c(-c3nc(CC)no3)ncn1-2 [GL-III-97]	100 ± 4%	100 ± 12%	6 ± 1%	11 ± 6%	54 ± 9%	98 ± 3%	–	–	–	–
CCc1noc(-c2ncn3c2[C@@H](C)N=C(c2ccccc2F)c2cc(Br)ccc2-3)n1 [GL-III-98, (R)-5-(8-Bromo-6-(2-fluorophenyl)-4-methyl-4H-benzo[f]imidazo[1,5-a][1,4]diazepin-3-yl)-3-ethyl-1,2,4-oxadiazole]	83 ± 6%	56 ± 5%	–	–	42 ± 8%	100 ± 11%	–	–	1 ± 4%	75 ± 9%
CCc1noc(-c2ncn3c2CN=C(c2ccccn2)c2cc(Br)ccc2-3)n1 [GL-III-99]	95 ± 9%	93 ± 7%	19 ± 3%	49 ± 5%	87 ± 11%	100 ± 9%	–	–	–	–
CC(C)c1noc(-c2ncn3c2[C@@H](C)N=C(c2ccccc2F)c2cc(Br)ccc2-3)n1 [GL-IV-01, (R)-5-(8-Bromo-6-(2-fluorophenyl)-4-methyl-4H-benzo[f]imidazo[1,5-a][1,4]diazepin-3-yl)-3-isopropyl-1,2,4-oxadiazole]	100 ± 9%	100 ± 9%	–	–	72 ± 8%	100 ± 9%	–	–	17 ± 7%	56 ± 11%
CC(C)c1noc(-c2ncn3c2[C@@H](C)N=C(c2ccccc2F)c2cc(C4CC4)ccc2-3)n1 [GL-IV-04, (R)-5-(8-Cyclopropyl-6-(2-fluorophenyl)-4-methyl-4H-benzo[f]imidazo[1,5-a][1,4]diazepin-3-yl)-3-isoproyl-1,2,4-oxadiazole]	86 ± 6%	100 ± 6%	–	–	71 ± 6%	100 ± 7%	–	–	11 ± 2%	62 ± 8%
